Earlier results, collected in patent US20040048919A1, “Compositions and methods for reduction of inflammatory symptoms and/or biomarkers in female subjects” (priority 2002, published 2004).

Conditions: 3.6 gm DHA per day (50x average dietary intake)

For CC/C=C\C/C=C\C/C=C\C/C=C\C/C=C\C/C=C\CCC(=O)O [DHA, all-cis 4,7, 10, 13, 16, 19-docosahexaenoic acid], the “toxicities on ingestion by humans” value is listed as “no apparent toxicities”.
